Patent US20020107197A1, “Ligands for G protein coupled receptors and methods of using them” (priority 2000, published 2002)

Key:
GPR4 [1] = target: T1, GPR4 (Homo sapiens, UniProt P46093); experiment: Radioligand binding to homogenates of GPR4-transfected CHO cells; settings: cold competitors, GPR4-transfected CHO cell homogenates
T1 construct: were used to generate full length GPR4, which was digested with EcoRI and Xba I and cloned into the pBs3HA vector; expressed in transfected cells
Procedure: To characterize the binding of SPC and LPC to GPR4 and TDAG8, we conducted radioligand binding assays. CHO cells were chosen for GPR4 binding assays, since HEK293 cells express relatively high levels of endogenous GPR4. CHO cells stably transfected with empty vector or GPR4 were serum starved for 20 h, then collected after exposure to 2 mM EDTA in PBS. The pelleted cells were stored at −80° C. until use. Binding assays were performed essentially as described previously (Xu et al. (2000) Nat Cell Biol 2, 261-267), except binding was performed at 4° C. Briefly, frozen cells (10^6 cells/ml) were homogenized in a binding buffer. Assays were performed in 96-well plates in triplicate with 100 μl cell homogenate (equivalent to 10^5 cells/well). Different amounts of [^3H]SPC or [^3H]16:0-LPC were added to the cell homogenates in 50 μl of binding buffer, in the presence or absence of cold SPC or 16:0-LPC, or other competitors. The plates were incubated at 4° C. for 120 min, unless otherwise indicated. Cell-bound [^3H]SPC or [^3H]LPC was collected onto a filter (Printed Filtermat A, Wallac, Gaithersburg, Md.) using an automated cell harvester (HARVESTER 96, Tomtec, Orange, Conn.). Specific binding was calculated by subtraction of nonspecific binding (binding detected in the presence of 100-fold excess unlabeled SPC or 16:0-LPC) from the total binding.
Cell homogenates were used for binding assays. Binding was conducted at 4° C. for 120 min or as indicated. [^3H]SPC and [^3H]16:0-LPC specifically bound to cell homogenates from GPR4-transfected CHO cells in a time-dependent manner and reached equilibrium after 60 min incubation at 4° C. […] The maximum binding capacities for SPC and 16:0-LPC were 996 fmole/10^5 cells for SPC and 1,528 fmole/10^5 cells for 16:0-LPC. […] Binding assays using [^3H]18:0-LPC gave similar results. We also tested the four glycosphingolipids, Psy, Glu-Sph, Gal-Cer, and Lac-Cer, for their ability to compete for the binding of [^3H]SPC and [^3H]16:0-LPC to GPR4.

endogenous PAF receptor = target: T2, endogenous PAF receptor (Homo sapiens, UniProt P25105); experiment: Calcium assay of the endogenous PAF receptor in MCF10A cells; assay type: cell-based; settings: BN52021 200 μM, WEB-2086 2 μM, WEB-2170 2 μM
T2 construct: endogenous in cells; host or cells: MCF10A (parental and GPR4-GFP-transfected)
T2 sequence (P25105 whole entry): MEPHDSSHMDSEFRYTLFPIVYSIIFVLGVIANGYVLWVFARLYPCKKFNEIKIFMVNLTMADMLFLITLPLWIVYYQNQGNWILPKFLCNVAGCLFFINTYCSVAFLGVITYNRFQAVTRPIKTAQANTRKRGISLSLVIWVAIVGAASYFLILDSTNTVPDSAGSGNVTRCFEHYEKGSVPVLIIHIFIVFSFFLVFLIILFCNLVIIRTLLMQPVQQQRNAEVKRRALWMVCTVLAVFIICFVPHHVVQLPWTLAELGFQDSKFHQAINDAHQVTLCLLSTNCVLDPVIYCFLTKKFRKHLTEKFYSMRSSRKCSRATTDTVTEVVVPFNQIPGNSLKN
Procedure: (§1) Measurement of [Ca^2+]i, was performed as described previously in Xu et al. (2000) Nat Cell Biol 2, 261-267. Briefly, pGPR4-GFP-transfected MCF10A cells were grown in specialized glass-bottom dishes (Bioptech, Inc., Butler, Pa.) and loaded with fura-2 in HEPES buffered saline. Using a dual-wavelength spectrofluorometer (RFK-6002, Photon Technology Int'l, So. Brunswick, N.J.) coupled to an inverted fluorescence microscope (Olympus, IX-70, Lake Success, N.Y.), GFP-positive cells were identified using an excitation wavelength of 488 nm, a dichroic 505 nm long-pass filter and an emitter filter at bandpass of 535 nm (Chroma Technology, Brattleboro, Vt.). Measurements of [Ca^2+]i were performed on individual GPR4-GFP positive cells at excitation wavelengths of 340 and 380 nm and an emission wavelength of 510 nm. Conversion of the 340/380 ratio value into [Ca^2+]i in nM was estimated by comparing the cellular fluorescence ratio with ratios acquired using fura-2 (free acid) in buffers containing known Ca^2+ concentrations. [Ca^2+]i was then calculated as described by Grynkiewicz et al. (1985) J Biol Chem 260, 3440-3450. All calcium assays were performed in the presence of 1 mM EGTA in the assay buffers. Therefore, intracellular calcium release, not calcium influx, was analyzed.
Therefore, it is unlikely that the increase in calcium induced by LPC was mediated by a PAF receptor.

GPR4 [2] = target: T1, GPR4; experiment: Single-cell intracellular calcium assay (fura-2) in GPR4-GFP-transfected MCF10A cells; assay type: cell-based; settings: for effect of PAF receptor antagonist on calcium response to LPC or SPC: BN52021 200 μM, WEB-2086 2 μM, WEB-2170 2 μM; for increase in [Ca2+]i in GPR4- vs vector-transfected/parental MCF10A cells: lipid at 1 μM
Procedure: as §1
To test whether GPR4 is a receptor for SPC, MCF10A cells were transiently transfected with pGPR4-GFP.
The GFP receptor fusion was used to identify positively transfected cells, and single-cell calcium assays were performed as described in our previous studies, such as Xu et al. (2000) Nat Cell Biol 2, 261-267.

GPR4 [3] = target: T1, GPR4; experiment: Internalization of GPR4-GFP in HEK293 cells (confocal microscopy); assay type: cell-based
Procedure: pGPR4-GFP stably expressing HEK293 cells were cultured in 6 cm tissue culture dishes in RPMI1640 with 10% FBS. After 16-24 h serum starvation, cells were treated with different lipids at 37° C. for 2 h. Cells were washed with cold PBS and fixed with 4% paraformaldehyde in PBS. The subcellular localization of GPR4-GFP protein was visualized under a Leica TV confocal fluorescence microscope with a 63× oil immersion lens (Wetzler, Heidelberg, Germany). The excitation and emission wavelengths were 488 nm and 515-540 nm, respectively.
G protein coupled receptors undergo agonist-dependent desensitization and internalization. When HEK293 cells are transfected with the pEGFP-N1 vector, GFP protein is expressed in the cytosol of the cells. The GPR4-GFP and TDAG8-GFP fusion proteins, on the other hand, was expressed only on the plasma membrane.

GPR4 [4] = target: T1, GPR4; experiment: ERK MAP kinase activation (phospho-ERK Western blot) in GPR4-infected Swiss 3T3 cells; assay type: cell-based; settings: GPR4-ires-GFP vs GFP Swiss 3T3 cells; SPC and LPC 100 nM
Procedure: MAP kinases are key signaling intermediates of DNA synthesis and cell proliferation. Swiss 3T3 cells were infected with MSCV GPR4-ires-GFP or MSCV ires-GFP, and subsequently cells sorted by FACS for positive expression of GFP as described previously (Kabarowski et al. (2000) Proc Natl Acad Sci USA. 97, 12109-12114). Cells were plated in 6-well plates in DMEM containing 5% FBS, serum-starved overnight, and then treated lipids in DMEM for the indicated times. Cells were lysed on ice in RIPA buffer containing 50 mM Tris-HCl, pH 7.5, 1% Nonidet P-40, 0.5% deoxycholate,0.1% SDS, 150 mM NaCl, 2 mM EGTA, 25 mM sodium fluoride, 1 mM sodium orthovanadate, and 1× protease inhibitors (Sigma P8340). Lysates containing equal amounts of protein were separated on 10% SDS-polyacrylamide gels and transferred onto nitrocellulose membranes. Antibodies against phosphorylated ERK1/2 (Cell Signaling Technologies; Beverly, Mass.) were used to probe the membrane and the ECL system (Amersham) was used for detection. To normalize the amounts of protein loaded in each lane, membranes were stripped and re-probed with antibodies against total ERK (Cell Signaling Technologies). In some experiments, cells were pretreated with 100 ng/ml PTX for 12-16 h prior to SPC and LPC stimulation.

GPR4 [5] = target: T1, GPR4; experiment: SRE luciferase reporter in GPR4-transfected HEK293 cells; assay type: cell-based; settings: GPR4 cotransfection
Procedure: The serum-response element (SRE) reporter system is a sensitive assay for receptors of lipid factors (An et al. (1998) J Biol Chem 273, 7906-7910; An et al. (1999) Mol Pharmacol 55, 787-794). The SRE reporter system used herein (pSRE-Luc) was a gift from Dr. Songzhu An (UCSF), or may be purchased from Stratagene (La Jolla, Calif.). Both systems give identical results. HEK293 and HEK293GPR4 cells were cultured in RPMI1640 with 10% FBS in 10 cm dishes to ˜85% confluence. To the cells in each dish, pSRE-Luc (10 μg) was transfected in the presence of 60 μl LipofectAMINE reagent. Cells were seeded in 96-well plates 16 h after transfection, incubated for another 24 h in RPMI1640 with 10% FBS, and starved in serum-free medium for 16 h. SPC (dissolved in PBS to 10 mM) and other lipids (LPCs were dissolved in 70% ethanol. Other lipids were dissolved in PBS, 70-95% ethanol, or 100% MeOH) were diluted in serum free RPMI 1640 and added to the cells, followed by a 10 h incubation. Luciferase activity was measured in Microlite™ 1 plates (DYNEX Technologies, Inc., Virginia) using 60 μl of cell lysate and 20 μl luciferase substrate. PTX (100 ng/ml) was added during the 16 h serum starvation period and pcDNA1-C3 (encoding the C3-exoenzyme, 2 μg) was co-transfected with pSRE-Luc (10 μg). All experiments were performed in quadruplicate and were repeated at least three times. The Student's t test was performed using the GraphPad Instat software (San Diego, Calif.). p<0.05 was considered to be statistically significant.

T1 sequence (P46093 whole entry): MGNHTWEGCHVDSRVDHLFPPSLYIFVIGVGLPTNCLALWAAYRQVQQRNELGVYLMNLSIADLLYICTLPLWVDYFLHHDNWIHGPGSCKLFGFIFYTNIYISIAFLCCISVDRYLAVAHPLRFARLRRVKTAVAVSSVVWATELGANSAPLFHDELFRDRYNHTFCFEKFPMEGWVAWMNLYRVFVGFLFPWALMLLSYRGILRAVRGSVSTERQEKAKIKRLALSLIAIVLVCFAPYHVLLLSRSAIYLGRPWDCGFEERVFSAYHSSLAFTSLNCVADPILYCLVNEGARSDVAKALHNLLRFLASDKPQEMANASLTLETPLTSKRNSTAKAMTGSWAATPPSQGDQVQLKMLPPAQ

| Compound | competition for binding of [3H]SPC and [3H]16:0-LPC to GPR4 (GPR4 [1]) | increase in [Ca2+]i in GPR4- vs vector-transfected/parental MCF10A cells (GPR4 [2]) | GPR4-dependent ERK activation (in words) (GPR4 [4]) | other results |
| --- | --- | --- | --- | --- |
| CCCCCCCCCCCCCCCCCC(=O)OC[C@@H](O)COP(=O)([O-])OCC[N+](C)(C)C [18:0-LPC] | successfully competed for binding | – | – | – |
| CC1C(=O)OC2C(O)C34C5CC(C(C)(C)C)C36C(OC(=O)C6O)OC4(C(=O)O5)C12O (stereo not shown) [BN52021] | – | – | – | effect on calcium signal induced by PAF (100 nM) (endogenous PAF receptor): completely abolished; effect of PAF receptor antagonist on calcium response to LPC or SPC (GPR4 [2]): not affected; effect of PAF receptor antagonist on GPR4 internalization induced by SPC or 16:0-LPC (GPR4 [3]): did not block |
| CCCCCCCCCCCCC/C=C/[C@@H](O)[C@@H](N)COP(=O)([O-])OCC[N+](C)(C)C [D-erythro-SPC] | – | stereoselectivity of GPR4 favoring D-erythro-SPC | – | – |
| CCCCCCCCCCCCC/C=C/[C@@H](O)[C@@H](N)CO[C@@H]1O[C@H](CO)[C@@H](O)[C@H](O)[C@H]1O [Glu-Sph, glucosyl-β1′1-sphingosine] | None of these glycosphingolipids competed successfully | did not stimulate increases in [Ca^2+]i | not | – |
| CCCCCCCCCCCCC/C=C/[C@@H](O)[C@@H](N)COP(=O)([O-])OCC[N+](C)(C)C [L-threo-SPC] | – | favoring D-erythro-SPC (the bioactive form of SPC) vs. L-threo-SPC | – | – |
| CCCCCCCCCCCCC/C=C/[C@@H](O)[C@@H](N)CO[C@@H]1O[C@H](CO)[C@H](O)[C@H](O)[C@H]1O [Psy, psychosine] | None of these glycosphingolipids competed successfully | did not stimulate increases in [Ca^2+]i | not | – |
| Cc1nnc2n1-c1sc(CCC(=O)N3CCOCC3)cc1C(c1ccccc1Cl)=NC2 [WEB-2086] | – | – | – | effect on calcium signal induced by PAF (100 nM) (endogenous PAF receptor): completely abolished; effect of PAF receptor antagonist on calcium response to LPC or SPC (GPR4 [2]): not affected; effect of PAF receptor antagonist on GPR4 internalization induced by SPC or 16:0-LPC (GPR4 [3]): did not affect |
| Cc1nnc2n1-c1sc3c(c1C(c1ccccc1Cl)=NC2)CC(C(=O)N1CCOCC1)C3 (stereo not shown) [WEB-2170] | – | – | – | effect on calcium signal induced by PAF (100 nM) (endogenous PAF receptor): completely blocked; effect of PAF receptor antagonist on calcium response to LPC or SPC (GPR4 [2]): did not affect; effect of PAF receptor antagonist on calcium response to LPC or SPC (GPR4 [2]; listed as WEB-2071): insensitive; effect of PAF receptor antagonist on GPR4 internalization induced by SPC or 16:0-LPC (GPR4 [3]): did not affect |
| Sphingomyelin [SM (18:0)] | not | – | – | transcriptional activation of SRE (in words) (GPR4 [5]): none of them induced significant transcriptional activation of SRE |
| galactosyl-β1′1-ceramide [Gal-Cer] | None of these glycosphingolipids competed successfully | induced the same level of increased [Ca^2+]i | not | – |
| lactosyl-β1′1-ceramide [Lac-Cer] | None of these glycosphingolipids competed successfully | did not stimulate increases in [Ca^2+]i | activation was independent of GPR4 expression | – |
| lysophosphatidylinositol [LPI(18:0)] | not | – | – | – |
